The target of one assay is T1, human EHMT1 982-1266 (Homo sapiens, UniProt Q9H9B1).
T1 sequence (Q9H9B1 982-1266): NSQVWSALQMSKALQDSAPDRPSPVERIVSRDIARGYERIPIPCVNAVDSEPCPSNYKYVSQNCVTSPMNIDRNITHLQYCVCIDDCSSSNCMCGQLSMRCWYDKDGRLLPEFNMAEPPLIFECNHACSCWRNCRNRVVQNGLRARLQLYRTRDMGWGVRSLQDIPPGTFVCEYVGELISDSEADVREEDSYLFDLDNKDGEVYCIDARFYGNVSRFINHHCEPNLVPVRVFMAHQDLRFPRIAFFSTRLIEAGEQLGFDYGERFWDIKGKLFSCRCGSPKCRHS
In words: EHMT1 enzyme assay on histone peptide substrate (3H-SAM SPA). The settings on record: EHMT1 IC50, recombinant human EHMT1 982-1266, histone peptide substrate.

In the next assay the target is T2, human EHMT2 913-1193 (Homo sapiens, UniProt Q96KQ7).
T2 sequence (Q96KQ7 913-1193): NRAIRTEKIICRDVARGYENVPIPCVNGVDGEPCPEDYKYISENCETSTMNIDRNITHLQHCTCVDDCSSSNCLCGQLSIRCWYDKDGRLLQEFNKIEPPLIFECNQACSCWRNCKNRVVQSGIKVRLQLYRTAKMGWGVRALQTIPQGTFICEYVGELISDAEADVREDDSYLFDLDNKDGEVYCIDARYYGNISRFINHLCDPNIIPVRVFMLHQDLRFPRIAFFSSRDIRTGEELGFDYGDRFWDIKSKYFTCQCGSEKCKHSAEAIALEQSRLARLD
In words: EHMT2 enzyme assay on histone peptide substrate (3H-SAM SPA). The conditions noted are these: EHMT2 IC50, recombinant human EHMT2 913-1193, histone peptide substrate.

As usually defined, the IC50 is the concentration at which inhibition is half-maximal.

On to `CNc1cc(C)nc(Nc2cc3c(c(C4=CCNC(CO)CC4)c2F)OCC3)n1` (single isomer, unassigned) [Compound 159-a], for which the IC50 at human EHMT1 982-1266 is 500 to 2000 nM; on human EHMT2 913-1193, more than 2000 nM.

On to `CNc1cc(C)nc(Nc2cc3c(c(C4=CCNC(CO)CC4)c2F)OCC3)n1` (single isomer, unassigned) [Compound 159], for which the 50% inhibitory concentration (IC50) is less than 100 nM at human EHMT1 982-1266 and 100 to 500 nM on human EHMT2 913-1193.

For `CNc1cc(C)nc(Nc2cc3c(c(C4=CCNC(C)CC4)c2Cl)OCCO3)n1` (single isomer, unassigned) [Compound 161-a], the figures for the 50% inhibitory concentration (IC50) at human EHMT1 982-1266 and at human EHMT2 913-1193 were 500 to 2000 nM and more than 2000 nM, respectively.

With `CNc1cc(C)nc(Nc2cc3c(c(C4=CCNC(C)CC4)c2Cl)OCCO3)n1` (single isomer, unassigned) [Compound 161], the IC50 on human EHMT1 982-1266 and at human EHMT2 913-1193 was less than 100 nM each time.

`CNc1cc(C)nc(Nc2cc3c(c(C4=CCNC(C)CC4)c2F)OCCC3)n1` (single isomer, unassigned) [Compound 162]: the IC50 at human EHMT1 982-1266 and on human EHMT2 913-1193 was 500 to 2000 nM throughout.

For the compound `CNc1cc(C)nc(Nc2cc3c(c(C4=CCNC(C)CC4)c2F)OCCO3)n1` (single isomer, unassigned) [Compound 163-a], the half-maximal inhibitory concentration (IC50) on human EHMT1 982-1266 is 500 to 2000 nM; on human EHMT2 913-1193, more than 2000 nM.

With `CNc1cc(C)nc(Nc2cc3c(c(C4=CCNC(C)CC4)c2F)OCCO3)n1` (single isomer, unassigned) [Compound 163], the IC50 on human EHMT1 982-1266 and at human EHMT2 913-1193 was less than 100 nM each time.

Regarding `CNc1cc(C)nc(Nc2cc3c(c(C4=CCNC(C)CC4)c2F)OCCC3)n1` (single isomer, unassigned) [Compound 164], the IC50 on human EHMT1 982-1266 and at human EHMT2 913-1193 was less than 100 nM in each case.

For the compound `CNc1cc(C)nc(Nc2cc3c(c(C4=CCNCC(F)C4)c2F)OCC3)n1` (single isomer, unassigned) [Compound 168], the IC50 at human EHMT1 982-1266 and at human EHMT2 913-1193 was 100 to 500 nM each time.

For the compound `CNc1cc(C)nc(Nc2cc3c(c(C4=CCNC(C)CC4)c2F)OCC3)n1` (single isomer, unassigned) [Compound 184], the IC50 on human EHMT1 982-1266 lay in the range of 100 to 500 nM; at human EHMT2 913-1193 it was 500 to 2000 nM.

For `CNc1cc(C)nc(Nc2cc3c(c(C4=CCNC(C(F)F)CC4)c2F)OCC3)n1` (single isomer, unassigned) [Compound 354-a], the IC50 on human EHMT1 982-1266 and at human EHMT2 913-1193 was more than 2000 nM each time.

On to `CNc1cc(C)nc(Nc2cc3c(c(C4=CCNC(C(F)F)CC4)c2F)OCC3)n1` (single isomer, unassigned) [Compound 354], for which the IC50 was less than 100 nM at human EHMT1 982-1266 and 100 to 500 nM at human EHMT2 913-1193.

For the compound `CNc1cc(C)nc(Nc2cc3c(c(C4=CCNC(C)CC4)c2Cl)OCO3)n1` (single isomer, unassigned) [Compound 356-a], the IC50 on human EHMT1 982-1266 is 500 to 2000 nM; on human EHMT2 913-1193, more than 2000 nM.

As for `CNc1cc(C)nc(Nc2cc3c(c(C4=CCNC(C)CC4)c2Cl)OCO3)n1` (single isomer, unassigned) [Compound 356], the IC50 at human EHMT1 982-1266 and on human EHMT2 913-1193 was less than 100 nM each time.

`CNc1cc(C)nc(Nc2cc3c(c(C4=CCNCC(O)C4)c2C)OCCC3)n1` (single isomer, unassigned) [Compound 360]: the IC50 on human EHMT1 982-1266 lay within 100 to 500 nM; at human EHMT2 913-1193, 500 to 2000 nM.

For the compound `CNc1cc(C)nc(Nc2cc3c(c(C4=CCNC(C)CC4)c2Cl)OCCC3)n1` (single isomer, unassigned) [Compound 365], the figures for the IC50 at human EHMT1 982-1266 and at human EHMT2 913-1193 were 100 to 500 nM and 500 to 2000 nM, respectively.

In the case of `CNc1cc(C)nc(Nc2cc3c(c(C4=CCNCC(OC)C4)c2F)OCC3)n1` (single isomer, unassigned) [Compound 366-a], the results for the IC50 on human EHMT1 982-1266 and on human EHMT2 913-1193 were 500 to 2000 nM and more than 2000 nM, respectively.

On to `CNc1cc(C)nc(Nc2cc3c(c(C4=CCNCC(OC)C4)c2F)OCC3)n1` (single isomer, unassigned) [Compound 366], for which the IC50 was in the range of 100 to 500 nM on human EHMT1 982-1266 and 500 to 2000 nM at human EHMT2 913-1193.

Take `CNc1cc(C)nc(Nc2cc3c(c(C4=CCNC(C)CC4)c2C)OCCO3)n1` (single isomer, unassigned) [Compound 368]: the IC50 at human EHMT1 982-1266 and at human EHMT2 913-1193 was 100 to 500 nM each time.

Turning to `CNc1cc(C)nc(Nc2cc3c(c(C4=CCNC(CF)CC4)c2F)OCC3)n1` (single isomer, unassigned) [Compound 371-a], the IC50 at human EHMT1 982-1266 and at human EHMT2 913-1193 was more than 2000 nM in each case.

As to `CNc1cc(C)nc(Nc2cc3c(c(C4=CCNC(CF)CC4)c2F)OCC3)n1` (single isomer, unassigned) [Compound 371], the IC50 on human EHMT1 982-1266 and on human EHMT2 913-1193 was less than 100 nM throughout.

As to `CNc1cc(C)nc(Nc2cc3c(c(C4=CCNC(C)CC4)c2Cl)OCC3)n1` (single isomer, unassigned) [Compound 374-a], the IC50 on human EHMT1 982-1266 and on human EHMT2 913-1193 was 500 to 2000 nM throughout.

For `CNc1cc(C)nc(Nc2cc3c(c(C4=CCN(C)CC(O)C4)c2C)OCC3)n1` (single isomer, unassigned) [Compound 379], the IC50 on human EHMT1 982-1266 and at human EHMT2 913-1193 was less than 100 nM each time.

Regarding `CNc1cc(C)nc(Nc2cc3c(c(C4=CCNC(C)CC4)c2F)OCO3)n1` (single isomer, unassigned) [Compound 380], the IC50 at human EHMT1 982-1266 was in the range of 100 to 500 nM; at human EHMT2 913-1193, 500 to 2000 nM.

Regarding `CNc1cc(C)nc(Nc2cc3c(c(C4=CCNC(C)CC4)c2C)OCC3)n1` (single isomer, unassigned) [Compound 383-a], the IC50 at human EHMT1 982-1266 and on human EHMT2 913-1193 was 500 to 2000 nM each time.

`CNc1cc(C)nc(Nc2cc3c(c(C4=CCNC(C)CC4)c2C)OCCC3)n1` (single isomer, unassigned) [Compound 385-a]: the IC50 at human EHMT1 982-1266 and on human EHMT2 913-1193 was more than 2000 nM in each case.

For the compound `CNc1cc(C)nc(Nc2cc3c(c(C4=CCNC(C)CC4)c2C)OCCC3)n1` (single isomer, unassigned) [Compound 385], the values for the IC50 at human EHMT1 982-1266 and at human EHMT2 913-1193 were less than 100 nM and 100 to 500 nM, respectively.

`CNc1cc(C)nc(Nc2cc3c(c(C4=CCN(C)CC(O)C4)c2C)OCCC3)n1` (single isomer, unassigned) [Compound 418]: the IC50 is less than 100 nM on human EHMT1 982-1266 and 100 to 500 nM at human EHMT2 913-1193.

Take `CNc1cc(C)nc(Nc2cc3c(c(C4=CCN(C)CC(O)C4)c2C)OCCC3)n1` (single isomer, unassigned) [Compound 419]: the IC50 at human EHMT1 982-1266 was 500 to 2000 nM; at human EHMT2 913-1193, more than 2000 nM.

As to `CNc1cc(C)nc(Nc2cc3c(c(C4=CCC(N)CC4)c2F)OCC3)n1` (single isomer, unassigned) [Compound 436], the IC50 on human EHMT1 982-1266 was 500 to 2000 nM; on human EHMT2 913-1193, more than 2000 nM.

As to `[2H]Cc1cc(NC([2H])([2H])[2H])nc(Nc2cc3c(c(C4=CCNCCC4)c2)OCCO3)n1` [Compound 216], the IC50 on human EHMT1 982-1266 and at human EHMT2 913-1193 was less than 100 nM throughout.

As for `CNc1cc(C)nc(Nc2cc3c(c([C@H]4CC[C@H](N)CC4)c2)OCCO3)n1` [Compound 337], the IC50 was 100 to 500 nM at human EHMT1 982-1266 and more than 2000 nM at human EHMT2 913-1193.

(Values after patent US20240368139A1, “NOVEL MODULATORS OF EHMT1 AND EHMT2 AND THERAPEUTIC USE THEREOF” (Tango Therapeutics, Inc., priority 2021, published 2024).)
